Measured values as given in BindingDB's records for doi:10.1021/jm900098v (Kosan Biosciences, 2009).

Target: Heat shock protein HSP 90-beta (Homo sapiens, UniProt P08238)
Experiment: Binding affinity to human recombinant HSP90

Sequence of Heat shock protein HSP 90-beta (P08238 whole entry): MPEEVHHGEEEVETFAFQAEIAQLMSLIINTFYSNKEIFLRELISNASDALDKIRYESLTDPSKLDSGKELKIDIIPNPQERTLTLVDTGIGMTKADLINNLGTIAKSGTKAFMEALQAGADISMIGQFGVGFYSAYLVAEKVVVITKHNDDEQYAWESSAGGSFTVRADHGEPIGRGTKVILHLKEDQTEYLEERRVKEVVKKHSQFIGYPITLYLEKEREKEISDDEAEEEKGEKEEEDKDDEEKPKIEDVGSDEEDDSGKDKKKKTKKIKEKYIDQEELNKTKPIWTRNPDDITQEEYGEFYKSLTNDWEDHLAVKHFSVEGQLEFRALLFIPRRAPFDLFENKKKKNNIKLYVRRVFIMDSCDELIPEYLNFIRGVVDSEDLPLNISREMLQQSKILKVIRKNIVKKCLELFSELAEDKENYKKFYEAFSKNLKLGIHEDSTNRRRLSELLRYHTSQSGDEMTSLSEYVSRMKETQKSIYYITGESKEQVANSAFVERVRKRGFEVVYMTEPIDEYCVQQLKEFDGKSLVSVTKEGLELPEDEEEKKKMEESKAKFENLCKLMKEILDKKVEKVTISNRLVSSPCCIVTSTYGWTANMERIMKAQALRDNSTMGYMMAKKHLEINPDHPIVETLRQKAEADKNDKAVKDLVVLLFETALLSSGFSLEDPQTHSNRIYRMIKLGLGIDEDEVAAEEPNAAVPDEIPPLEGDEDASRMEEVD

Kd [µM] | Structure (SMILES)
> 100 | CO/N=C1/[C@@H](OC)C[C@H](C)Cc2c(O)c(cc(O)c2N=CCN(C)C)NC(=O)C(C)=CC=C[C@H](OC)[C@@H](OC(N)=O)/C(C)=C/[C@@H]1C [(8S,9S,12S,14S,16R)-19-(2-(dimethylamino)ethylamino)-8,14-dimethoxy-13-(methoxyimino)-4,10,12,16-tetramethyl-3,20,22-trioxo-2-azabicyclo[16.3.1]docosa-1(21),4,6,10,18-pentaen-9-yl carbamate]
> 10 | CO[C@H]1C[C@H](C)Cc2c(O)c(cc(O)c2N=CCN(C)C)NC(=O)C(C)=CC=C[C@H](OC)[C@@H](OC(N)=O)C(C)=C[C@H](C)C1N=O (stereo partly drawn) [(8S,9S,12S,14S,16R)-19-(2-(dimethylamino)ethylamino)-13-(hydroxyimino)-8,14-dimethoxy-4,10,12,16-tetramethyl-3,20,22-trioxo-2-azabicyclo[16.3.1]docosa-1(21),4,6,10,18-pentaen-9-yl carbamate]
0.8 | CO[C@H]1C=CC=C(C)C(=O)Nc2cc(O)c(N=CCF)c(c2O)C[C@@H](C)C[C@H](OC)[C@H](O)[C@@H](C)/C=C(\C)[C@@H]1OC(N)=O [Carbamic acid (4E,6Z,10E)-(8S,9S,12S,13R,14S,16R)-19-(2-fluoro-ethylamino)-13-hydroxy-8,14-dimethoxy-4,10,12,16-tetramethyl-3,20,22-trioxo-2-aza-bicyclo[16.3.1]docosa-1(21),4,6,10,18-pentaen-9-yl ester]
